# Reference: article PMC3723632, “A Multi-targeted Drug Candidate with Dual Anti-HIV and Anti-HSV Activity” (PLoS Pathogens, 2013)
# Like-named read-outs stand apart in the source and are kept apart here.
# Legend:
# HSV-2 (G strain) = experiment: Pre-treatment of PHK cell cultures, HSV-2 infection (CPE)
# Description: (§2) The HSV-induced cytopathic effect (CPE) was evaluated in HSV-infected HEL and PHK cultures as described [44], [48].
# HSV-2 (G) [1] = experiment: HSV-2 infection of primary monocyte/macrophage (M/M) cultures; type: cell-based
# Description: We obtained human PBMC from the blood of healthy seronegative donors using Ficoll–Hypaque density gradient centrifugation. The PBMC were resuspended in RPMI 1640 medium supplemented with 20% heat-inactivated serum and then seeded into 48-well plates (1.8×10^6 cells/well). M/M were separated by adherence onto plastic. After 5 days, non-adherent cells were carefully removed by repeated gentle washings with warm medium, and adherent M/M were cultured for an additional 3 days to mature and to form a monolayer. M/M were estimated to be 10^5 cells/well at the time of infection. […]. Similarly, macrophage cultures were treated with the same concentrations of adefovir and tenofovir. Macrophage cultures were then infected with HSV-2 (G) (100 TCID50) in the presence of the compounds. After 2 h of adsorption, the cultures were extensively washed to remove any residual virus particles. Fresh complete medium and compounds, at the established concentrations, were then added to the cultures. Appropriate positive (infected but not treated) and mock-infected negative (uninfected and untreated) M/M controls were run for each experiment as well. All assays were performed in triplicate. […] We determined the amount of infectious virus in the supernatants 5–6 days after infection using the cytopathic effect assay. Tenfold serially diluted supernatants were added to confluent monolayers of Vero cells in 96-well plates (100 µl/well, 6 parallel wells). […] The titers of virus produced were calculated according to the Reed and Muench method and expressed as 50% tissue culture infective dose per mL (TCID50/mL).
# HIV-2(ROD) = experiment: Anti-HIV-2 activity in CD4+ T-lymphocyte CEM cell cultures; type: cell-based; settings: Human immunodeficiency virus 2, CCRF-CEM; HIV-2(ROD), CEM, virus-induced cytopathicity; read-out: EC50
# Description: (§1) Human CD4 ^+ T-lymphocyte CEM cell cultures were inoculated with HIV-1 and HIV-2 and exposed to adefovir, tenofovir, or PMEO-DAPym. […]
# HSV-1 (KOS strain) = experiment: Pre-treatment of PHK cell cultures, HSV-1 infection (CPE)
# Description: as §2
# HIV-1(IIIB) = experiment: Anti-HIV-1 activity in CD4+ T-lymphocyte CEM cell cultures; type: cell-based; settings: Human immunodeficiency virus 1, CCRF-CEM, virus-induced cytopathicity
# Description: as §1
# HSV-2 (G) [2] = experiment: HSV-2 replication in human ex vivo tonsillar (lymphoid) tissue, viral DNA; type: cell-based
# Description: Figure 5 Suppression of HSV-2 in infected human ex vivo tonsillar tissue by adefovir and PMEO-DAPym. Blocks of human tonsillar tissue were inoculated ex vivo with HSV-2 (G) and treated or not with adefovir or PMEO-DAPym. We monitored HSV-2 (G) replication by measuring viral DNA in culture media at different times throughout the culture period. Presented are means ± SEM of cumulative HSV-2 (G) replication in tissues from two to six donors. For each donor, data represent pooled viral release from 27 tissue blocks.
# Figure 7 Suppression of HSV-2 in single-infected and HIV-1 co-infected human ex vivo tonsillar tissue by adefovir and PMEO-DAPym. Panels A and B: Blocks of human tonsillar tissue from five different donors were co-inoculated ex vivo with HSV-2 (G) and HIV-1 (LAI) and treated or not with adefovir or PMEO-DAPym (1 µg/ml). For tissue from each donor, we monitored replication of both viruses by evaluating their accumulation in the culture media bathing 27 tissue blocks at different times throughout the culture. We evaluated HIV-1 replication by measuring p24gag and HSV-2 (G) replication by measuring HSV-2 viral DNA. Panel A: Presented are kinetics of HSV-2 (G) and HIV-1 (LAI) replication (insert). Each point represents the mean ± SEM of viral replication in tissues from five donors. Panel B: Presented are means ± SEM of cumulative HSV-2 (G) and HIV-1 (LAI) replication (insert).
# Human tonsillar tissues were obtained from patients undergoing routine tonsillectomy at the Children's National Medical Center (Washington, DC) under IRB-approved protocol. Cervical tissues were obtained through the National Disease Research Interchange (NDRI, Philadelphia, PA). Tissues were dissected into blocks of about 2×2×2 mm and placed onto collagen sponge gels in culture medium at the air-liquid interface as described earlier. For tonsillar tissue for each experimental condition, 27 tissue blocks (9 blocks/well filled with 3 ml of medium) were inoculated with HSV-1 (strain F) or HSV-2 (strains G and MS). In coinfection experiments, tissue blocks were sequentially infected with HSV-2 (G) and HIV-1 (IIIB) (obtained from the Rush University Virology Quality Assurance Laboratory, Chicago, IL). Drugs (adefovir and PMEO-DAPym) were added to the culture medium 12 h prior to viral infection and replenished at each culture medium change.
# For cervico-vaginal tissue, 16 blocks were infected by immersion in HSV-2G-containing medium and maintained on the gelfoam rafts. Adefovir was added at the time of infection and replenished at each culture medium change. HSV replication was evaluated from the release of viral DNA into the culture medium as measured with quantitative real-time PCR [18]. We evaluated HIV-1 replication from the release of p24 capsid antigen using a bead-based assay.
smiles,measurement,setting,value
"Nc1nc2c(ncn2COCCO)c(=O)[nH]1 [Acyclovir, 9-(2-hydroxyethyloxymethyl)guanine]",EC50,"HSV-2 (G strain); Human alphaherpesvirus 2, read-out: 50% effective concentration, PHK, HSV-2 G, +2 h to 72 h (control, drug present whole incubation)",0.41 ± 0.13 µg/mL
same,EC50,"HSV-2 (G strain); Human alphaherpesvirus 2, read-out: 50% effective concentration, PHK, HSV-2 G, pretreatment −2.5 h to 0 h",50 µg/mL
same,EC50,"HSV-2 (G strain); Human alphaherpesvirus 2, read-out: 50% effective concentration, PHK, HSV-2 G, pretreatment −6 h to 0 h",> 50 µg/mL
same,EC50,"HSV-2 (G strain); Human alphaherpesvirus 2, read-out: 50% effective concentration, PHK, HSV-2 G, pretreatment −18 h to 0 h",> 50 µg/mL
same,Cytopathicity (CPE) on macrophages 6 days after infection % CPE,HSV-2 (G) [1]; 0.000025 µg/ml,75%
same,Virus production by HSV2-infected macrophages 6 days after infection (CPE reduction),HSV-2 (G) [1]; 0.000025 µg/ml,1.3×10^4 TCID50/ml
same,Cytopathicity (CPE) on macrophages 6 days after infection % CPE,HSV-2 (G) [1]; 0.000128 µg/ml,40%
same,Virus production by HSV2-infected macrophages 6 days after infection (CPE reduction),HSV-2 (G) [1]; 0.000128 µg/ml,7.2×10^3 TCID50/ml
same,Cytopathicity (CPE) on macrophages 6 days after infection % CPE,HSV-2 (G) [1]; 0.00064 µg/ml,10%
same,Virus production by HSV2-infected macrophages 6 days after infection (CPE reduction),HSV-2 (G) [1]; 0.00064 µg/ml,3.5×10^2 TCID50/ml
same,Virus production by HSV2-infected macrophages 6 days after infection (CPE reduction),HSV-2 (G) [1]; 0.003 µg/ml,No virus
same,Virus production by HSV2-infected macrophages 6 days after infection (CPE reduction),HSV-2 (G) [1]; 0.016 µg/ml,No virus
same,Virus production by HSV2-infected macrophages 6 days after infection (CPE reduction),HSV-2 (G) [1]; 0.08 µg/ml,No virus
same,inhibition at 25 pg/mL,"HSV-2 (G) [1]; Human alphaherpesvirus 2, 144 h, 0.000025 µg/ml, M/M, day 6, read-out: Inhibition of viral replication (% to control)",7.2%
same,inhibition at 0.000128 µg/mL,"HSV-2 (G) [1]; Human alphaherpesvirus 2, 144 h, 0.000128 µg/ml, M/M, day 6, read-out: Inhibition of viral replication (% to control)",49%
same,inhibition at 0.00064 µg/mL,"HSV-2 (G) [1]; Human alphaherpesvirus 2, 144 h, 0.00064 µg/ml, M/M, day 6, read-out: Inhibition of viral replication (% to control)",97%
same,inhibition at 0.003 µg/mL,"HSV-2 (G) [1]; Human alphaherpesvirus 2, 144 h, 0.003 µg/ml, M/M, day 6, read-out: Inhibition of viral replication (% to control)",100%
same,inhibition at 0.016 µg/mL,"HSV-2 (G) [1]; Human alphaherpesvirus 2, 144 h, 0.016 µg/ml, M/M, day 6, read-out: Inhibition of viral replication (% to control)",100%
same,inhibition at 0.08 µg/mL,"HSV-2 (G) [1]; Human alphaherpesvirus 2, 144 h, 0.08 µg/ml, M/M, day 6, read-out: Inhibition of viral replication (% to control)",100%
same,EC50,"HSV-2 (G) [1]; Human alphaherpesvirus 2, HSV-2 (G), human monocyte/macrophages",0.13 ± 0.015 µg/mL
same,EC50,HIV-2(ROD),> 100 µg/mL
same,EC50,"HSV-1 (KOS strain); Human alphaherpesvirus 1, read-out: 50% effective concentration, PHK, HSV-1 KOS, +2 h to 72 h (control, drug present whole incubation)",0.33 ± 0.25 µg/mL
same,EC50,"HSV-1 (KOS strain); Human alphaherpesvirus 1, read-out: 50% effective concentration, PHK, HSV-1 KOS, pretreatment −2.5 h to 0 h",> 50 µg/mL
same,EC50,"HSV-1 (KOS strain); Human alphaherpesvirus 1, read-out: 50% effective concentration, PHK, HSV-1 KOS, pretreatment −6 h to 0 h",> 50 µg/mL
same,EC50,"HSV-1 (KOS strain); Human alphaherpesvirus 1, read-out: 50% effective concentration, PHK, HSV-1 KOS, pretreatment −18 h to 0 h",> 50 µg/mL
same,EC50,HIV-1(IIIB),> 100 µg/mL
same,inhibition at 0.3 µg/mL,"HSV-2 (G) [2]; Human alphaherpesvirus 2, human lymphoid tissue ex vivo, 0.3 µg/mL, read-out: Inhibition of viral replication (% to control)",99.9%
same,inhibition at 3 µg/mL,"HSV-2 (G) [2]; Human alphaherpesvirus 2, human lymphoid tissue ex vivo, 3 µg/mL, read-out: Inhibition of viral replication (% to control)",> 99%
same,HSV-2 DNA copies,"HSV-2 (G) [2]; human lymphoid tissue ex vivo, 0.3 µg/mL",1.69 e+5 copies
same,HSV-2 DNA copies,"HSV-2 (G) [2]; human lymphoid tissue ex vivo, 3 µg/mL",2.83 e+4 copies
same,Inhibition of viral replication (% to control),"HSV-2 (G) [2]; human lymphoid tissue ex vivo, 3 µg/mL, listed as ACV",99.98%
